Measured values as given in publication PMC6165285, “α-Glucosidase Inhibitors: Diphenyl Ethers and Phenolic Bisabolane Sesquiterpenoids from the Mangrove Endophytic Fungus Aspergillus flavus QQSG-3” (Marine Drugs, 2018).
“Also recorded” adds a separate entry of the source.

Target: α-glucosidase (Saccharomyces cerevisiae, UniProt P53341)
Assay: α-Glucosidase inhibitory activity (p-nitrophenyl-α-glucopyranoside substrate, absorbance at 405 nm)
Assay type: biochemical
Conditions: compared to the positive control acarbose
Experimental: α-Glucosidase was assayed according to standard procedures. […] Ten microliters of testing materials (in triplicate) were incubated for 10 min with 20 μL of enzyme stock solution and 60 μL of PBS. After incubation, 10 μL of substrate was added and incubated for 20 min at 37 °C. Absorbance at 405 nm was then determined.
The inhibitory activity of the isolates was determined as a percentage in comparison to a blank (DMSO) according to the following equation: %αGHY=(1−A405t/A405c)×100% where %αGHY is the percentage of inhibition, A405t is the corrected absorbance of the compound under testing (A405end − A405initial), and A405c is the absorbance of the blank (A405endblank − A405initialblank). The IC50 values of compounds were calculated by the nonlinear regression analysis.

α-glucosidase, sequence (P53341 whole entry): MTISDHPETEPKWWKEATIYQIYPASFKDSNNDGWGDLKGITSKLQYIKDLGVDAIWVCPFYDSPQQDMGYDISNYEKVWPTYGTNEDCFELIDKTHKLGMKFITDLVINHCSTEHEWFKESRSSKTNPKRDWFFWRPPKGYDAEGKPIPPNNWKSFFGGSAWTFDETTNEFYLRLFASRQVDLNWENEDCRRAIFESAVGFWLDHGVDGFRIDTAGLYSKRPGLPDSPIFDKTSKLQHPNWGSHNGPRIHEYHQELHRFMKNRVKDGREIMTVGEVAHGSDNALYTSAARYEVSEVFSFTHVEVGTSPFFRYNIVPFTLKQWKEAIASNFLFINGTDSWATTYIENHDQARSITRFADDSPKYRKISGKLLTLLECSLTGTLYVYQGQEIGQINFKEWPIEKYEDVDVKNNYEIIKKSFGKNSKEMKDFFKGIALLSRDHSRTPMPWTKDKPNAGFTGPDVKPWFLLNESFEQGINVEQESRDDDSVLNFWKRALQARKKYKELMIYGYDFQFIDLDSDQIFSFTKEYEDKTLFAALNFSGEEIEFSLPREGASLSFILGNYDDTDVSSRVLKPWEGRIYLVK

Row | Compound | α-glucosidase inhibitory activity, result in words
1 | Cc1cc(O)cc(Oc2cc(C)c(C(=O)OCC(O)C(O)CO)c(O)c2)c1 (stereo not drawn) [Compound 2] | better than that of acarbose
2 | Cc1cc(O)cc(Oc2cc(C)cc(OCc3ccc([C@@](C)(O)CCCC(C)C)c(O)c3)c2)c1 [Compound 10, peniciaculin A] | strong inhibitory activity; also recorded: strong inhibitory effects
3 | C/C(=C\CCC(C)C)c1ccc(Cc2c(C)cc(Oc3cc(C)cc(O)c3)cc2O)cc1O [Compound 11, expansol D] | strong inhibitory activity; also recorded: strong inhibitory effects
4 | CC(C)CCCC(C)(O)c1ccc(COCc2ccc(C(C)(O)CCCC(C)C)c(O)c2)cc1O (stereo not drawn) [Compound 5] | strong inhibitory activity; also recorded: strong inhibitory effects
5 | Cc1cc(O)cc(Oc2cc(C)c(O)c(O)c2)c1 [Compound 1] | better than that of acarbose
6 | C/C(=C\CCC(C)C)c1ccc(Cc2cc(C)cc(O)c2O)cc1O [Compound 3] | strong inhibitory activity; also recorded: strong inhibitory effects
